Results as given in ChEMBL document CHEMBL6134865, “Rational Design of Methylene Blue-Raloxifene Conjugates for Efficient Breast Tumor Elimination Triggered by ERα Degradation” (J Med Chem, 2025).
Calls of active or inactive are those of the source. No cut-off for these calls is given here.

Tests used:
[1] = Induction of ROS generation in water at 1 uM irradiated with 660 nm 0.4 W/cm2 light up to 180 sec by DCFH probe based fluorescence spectra analysis; format: functional
[2] = Toxicity in female BALB/c mouse xenografted with human MCF7 cells assessed as change in hemoglobin level at 5 mg/kg, iv measured after 14 days; format: organism-based; details: in vivo, 336 h, time 14 day
[3] = Induction of ROS generation in water assessed as decrease in ABDA absorption peak at 1 uM irradiated with 660 nm 0.2 to 1.5 W/cm2 light for 5 mins by ABDA probe based UV-vis absorption spectra analysis; format: functional
in vivo [4] = details: Sprague-Dawley, rat, iv, 5 mg/kg
Description: Volume of distribution at steady state in Sprague-Dawley rat at 5 mg/kg, iv measured after 0.5 to 168 hrs by LC-MS analysis

[5] = Drug uptake in female BALB/c mouse kidney xenografted with human MCF7 cells at 5 mg/kg, iv measured after 4 hrs by fluorescence imaging analysis; format: ADME, organism-based; details: in vivo
MCF7 [6] = assay: Antitumor activity against human MCF7 cells xenografted in female BALB/c mouse model assessed as tumor regression at 5 mg/kg, iv measured after 14 days with 660 nm 0.4 W/cm2 light irradiation for 5 mins at 4 hrs of incubation time (reference value: 122.9 mm3); format: functional; details: time 14 day
MCF7 [7] = assay: cells; details: Homo sapiens, MCF7, light or radiation study
Description: Antiproliferative activity against human MCF7 cells assessed as inhibition of cell proliferation incubated for 48 hrs with 660 nm 0.4 W/cm2 light irradiation for 4 min at 6th hr of incubation time by MTT assay

MCF7 [8] = assay: cells; details: Homo sapiens, MCF7, light or radiation study; remark: listed apart in the source
Description: Antiproliferative activity against human MCF7 cells assessed as inhibition of cell proliferation incubated for 48 hrs with 660 nm 0.4 W/cm2 light irradiation for 5 min at 6th hr of incubation time by MTT assay

MCF7 [9] = assay: cells; details: Homo sapiens, MCF7, light or radiation study; remark: listed apart in the source
Description: Antiproliferative activity against human MCF7 cells assessed as inhibition of cell proliferation incubated for 48 hrs with 660 nm 0.4 W/cm2 light irradiation for 3 min at 6th hr of incubation time by MTT assay

[10] = Toxicity in female BALB/c mouse xenografted with human MCF7 cells assessed as change in hematocrit level at 5 mg/kg, iv measured after 14 days; format: organism-based; details: in vivo, 336 h, time 14 day
MCF7 [11] = assay: Antiproliferative activity against human MCF7 cells assessed as inhibition of cell proliferation incubated for 48 hrs with 660 nm 0.2 to 1.5 W/cm2 light irradiation for 1 min at 6th hr of incubation time by MTT assay; format: functional, cell-based
MCF7 [12] = assay: Induction of ROS generation in human MCF7 cells assessed as increase in green fluorescence at 1 uM incubated for 6 hrs followed by irradiation with 660 nm 0.4 W/cm2 light for 5 min by fluorescence imaging analysis; format: functional, cell-based; details: time 365.0 min
[13] = Toxicity in female BALB/c mouse xenografted with human MCF7 cells assessed as change in AST level at 5 mg/kg, iv measured after 14 days; format: organism-based; details: in vivo, 336 h, time 14 day
MCF7 [14] = assay: Photothermal effect in human MCF7 cells assessed as temperature of cell culture medium at 1 uM irradiated with 660 nm 0.4 W/cm2 light for 1 min (reference value: 26 degreeC); format: ADME, cell-based; details: mcf7, 1 min
MCF7 [15] = assay: Induction of ROS generation in human MCF7 cells assessed as cell percentage with elevated ROS at 1 uM incubated for 6 hrs followed by irradiation with 660 nm 0.4 W/cm2 light for 2 min by DCFH-DA probe based flow cytometric analysis (reference value: 0.2 %); format: functional; details: time 362 min, 6.033 h
MCF7 [16] = assay: Photothermal effect in human MCF7 cells assessed as temperature of cell culture medium at 1 uM irradiated with 660 nm 0.4 W/cm2 light for 5 min (reference value: 26 degreeC); format: ADME, cell-based; details: mcf7, 5 min
in vivo [17] = details: Sprague-Dawley, rat, po, 15 mg/kg
Description: AUC (0 to infinity) in Sprague-Dawley rat at 15 mg/kg, po administered via gavage and measured after 0.5 to 168 hrs by LC-MS analysis

[18] = Toxicity in female BALB/c mouse xenografted with human MCF7 cells assessed as change in lymphocytes level at 5 mg/kg, iv measured after 14 days; format: organism-based; details: in vivo, 336 h, time 14 day
[19] = Toxicity in female BALB/c mouse xenografted with human MCF7 cells assessed as change in white blood cell level at 5 mg/kg, iv measured after 14 days; format: organism-based; details: in vivo, 336 h, time 14 day
MCF7 [20] = assay: Antitumor activity against human MCF7 cells xenografted in female BALB/c mouse model assessed as tumor growth inhibition at 5 mg/kg, iv measured after 14 days relative to control; format: functional; details: MCF7, 336 h, time 14 day, read-out: TGI
MCF7 [21] = assay: cells; details: Homo sapiens, MCF7, light or radiation study; remark: listed apart in the source
Description: Antiproliferative activity against human MCF7 cells assessed as inhibition of cell proliferation incubated for 48 hrs with 660 nm 0.4 W/cm2 light irradiation for 1 min at 6th hr of incubation time by MTT assay

[22] = Toxicity in female BALB/c mouse xenografted with human MCF7 cells assessed as change in red blood cell level at 5 mg/kg, iv measured after 14 days; format: organism-based; details: in vivo, 336 h, time 14 day
[23] = Drug uptake in female BALB/c mouse liver xenografted with human MCF7 cells at 5 mg/kg, iv measured after 4 hrs by fluorescence imaging analysis; format: ADME, organism-based; details: in vivo
MCF7 [24] = assay: Induction of ROS generation in human MCF7 cells assessed as cell percentage with elevated ROS at 1 uM incubated for 6 hrs followed by irradiation with 660 nm 0.4 W/cm2 light for 1 min by DCFH-DA probe based flow cytometric analysis (reference value: 0.2 %); format: functional; details: time 361 min, 6.017 h
MCF7 [25] = assay: cells; details: Homo sapiens, MCF7, 48 h
Description: Antiproliferative activity against human MCF7 cells assessed as inhibition of cell proliferation incubated for 48 hrs by MTT assay

[26] = Toxicity in female BALB/c mouse xenografted with human MCF7 cells assessed as change in ALT level at 5 mg/kg, iv measured after 14 days with 660 nm 0.4 W/cm2 light irradiation for 5 mins at 4 hrs of incubation time; format: organism-based; details: in vivo, 336 h, time 14 day
MCF7 [27] = assay: Photothermal effect in human MCF7 cells assessed as temperature of cell culture medium at 1 uM irradiated with 660 nm 0.4 W/cm2 light for 3 min (reference value: 26 degreeC); format: ADME, cell-based; details: mcf7, 0.05 h

## CCN(CC)c1ccc2nc3c4ccccc4/c(=N\CCCCCCC(=O)NCCOc4ccc(C(=O)c5c(-c6ccc(O)cc6)sc6cc(O)ccc56)cc4)cc-3sc2c1
[1]
  Activity: Active
[2]
  Activity: Non-toxic
[3]
  Activity: Active
In vivo [4]
  Vd: 108 L/kg
[5]
  Drug uptake: Active
MCF7 [6]
  Activity: 45.3 mm3
MCF7 [7]
  IC50: 160 nM
MCF7 [8]
  IC50: 130 nM
MCF7 [9]
  IC50: 200 nM
[10]
  Activity: Non-toxic
MCF7 [11]
  Activity: Active
MCF7 [12]
  Activity: Active
[13]
  Activity: Non-toxic
MCF7 [14]
  T: 27.3 °C
MCF7 [15]
  Activity: 6.5%
MCF7 [16]
  T: 32.5 °C
In vivo [17]
  AUC(0-inf): 357 ng·h/mL
[18]
  Activity: Non-toxic
[19]
  Activity: Non-toxic
MCF7 [20]
  inhibition in vivo at 5 mg/kg: 77.5%
MCF7 [21]
  IC50: 550 nM
[22]
  Activity: Non-toxic
[23]
  Drug uptake: Active
MCF7 [24]
  Activity: 5.5%
MCF7 [25]
  IC50: 25100 nM
[26]
  Activity: Non-toxic
MCF7 [27]
  T: 29 °C
